Values quoted from earlier work in patent US8329663B2, “Compositions and methods for the treatment of chronic infections” (priority 2008, dated 2012).
Like-named read-outs stand apart in the source and are kept apart here.

Columns and labels:
[1] = in water
[2] = first (or only) pKa value listed
[3] = second pKa value listed (polyprotic)
[4] = third pKa value listed (polyprotic)

| SMILES | in vitro susceptibility of C. pneumoniae (C. pneumoniae) | pKa (in H2O) [1, 2] | pKa (in H2O) [1, 3] | pKa (in H2O) [1, 4] |
| --- | --- | --- | --- | --- |
| CC[C@H]1OC(=O)[C@H](C)[C@@H](O[C@H]2C[C@@](C)(OC)[C@@H](O)[C@H](C)O2)[C@H](C)[C@@H](O[C@@H]2O[C@H](C)C[C@H](N(C)C)[C@H]2O)[C@](C)(O)C[C@@H](C)C(=O)[C@H](C)[C@@H](O)[C@]1(C)O [erythromycin] | susceptible in vitro |  |  |  |
| O=C(O)c1ccccc1Nc1cccc(C(F)(F)F)c1 [Flufenamic acid] |  | 3.9 |  |  |
| CC(C)CN(C[C@@H](O)[C@H](Cc1ccccc1)NC(=O)O[C@H]1CCOC1)S(=O)(=O)c1ccc(N)cc1 [Amprenavir] |  | 1.76 | 11.54 |  |
| Cc1nc2n(c(=O)c1CCN1CCC(c3noc4cc(F)ccc34)CC1)CCCC2O (stereo not shown) [9-Hydroxy-risperidone] |  | 2.77 | 7.86 |  |
| CCOC(=O)c1ncn2c1CN(C)C(=O)c1cc(F)ccc1-2 [Flumazenil] |  | 1.7 |  |  |
| CC[C@H]1OC(=O)[C@H](C)[C@@H](O[C@H]2C[C@@](C)(OC)[C@@H](O)[C@H](C)O2)[C@H](C)[C@@H](O[C@@H]2O[C@H](C)C[C@H](N(C)C)[C@H]2O)[C@](C)(OC)C[C@@H](C)C(=O)[C@H](C)[C@@H](O)[C@]1(C)O [clarithromycin] | susceptible in vitro |  |  |  |
| CCS(=O)(=O)CCn1c([N+](=O)[O-])cnc1C [Tinidazole] |  | 2.34 |  |  |
| CN(C)CCc1c[nH]c2ccccc12 [Dimethyltryptamine] |  | 2 |  |  |
| C[C@@H]1CN(c2c(F)c(N)c3c(=O)c(C(=O)O)cn(C4CC4)c3c2F)C[C@H](C)N1 [sparfloxacin] | susceptible in vitro |  |  |  |
| CC(C)[C@H](N)C(=O)OCCOCn1cnc2c(=O)[nH]c(N)nc21 [Valacyclovir] |  | 1.90 | 7.47 | 9.43 |
| CO[C@H]1/C=C/O[C@@]2(C)Oc3c(C)c(O)c4c(O)c(c(/C=N/N5CCN(C)CC5)c(O)c4c3C2=O)NC(=O)/C(C)=C\C=C\[C@H](C)[C@H](O)[C@@H](C)[C@@H](O)[C@@H](C)[C@H](OC(C)=O)[C@@H]1C [Rifampin] |  | 1.7 | 7.9 |  |
| Cc1ccccc1-n1c(C)nc2ccccc2c1=O [Methaqualone] |  | 2.5 |  |  |
| O=C(O)c1cccc(C(=O)O)n1 [Dipicolinic Acid] |  |  | 4.97 |  |
| OCCOCCN1CCN(C(c2ccccc2)c2ccc(Cl)cc2)CC1 (stereo not shown) [Hydroxyzine] |  | 1.8 |  |  |
| CCCN(CCC)S(=O)(=O)c1ccc(C(=O)O)cc1 [Probenicid] |  | 3.4 |  |  |
| C[C@H]1c2cccc(O)c2C(=O)C2=C(O)[C@]3(O)C(=O)C(C(N)=O)=C(O)[C@@H](N(C)C)[C@@H]3[C@@H](O)[C@@H]21 [Doxycycline] |  | 3.5 | 7.7 | 9.5 |
| CC(=O)OCC1=C(C(=O)O)N2C(=O)[C@@H](NC(=O)CSc3ccncc3)[C@H]2SC1 [Cephapirin] |  | 2.15 | 5.44 |  |
| C[N+](C)(C)C[C@H](O)CC(=O)[O-] [L-carnitine] |  | 3.8 |  |  |
| NNC(=O)c1ccncc1 [Isoniazid] |  | 1.82 |  |  |
| COc1ccc2[nH]c([S+]([O-])Cc3ncc(C)c(OC)c3C)nc2c1 (stereo not shown) [Omeprazole] |  |  | 8.8 |  |
| C[C@H](N)C(=O)N[C@@H](C)C(=O)N[C@H]1[C@@H]2CN(c3nc4c(cc3F)c(=O)c(C(=O)O)cn4-c3ccc(F)cc3F)C[C@@H]21 [Alatrofloxacin] |  | 0.64 | 8.12 |  |
| O=P(O)(O)C(O)(Cc1cccnc1)P(=O)(O)O [Risedronic acid] |  | 0.32 | 5.09 |  |
| NCC1(CC(=O)O)CCCCC1 [Neurontin] |  | 3.68 | 10.70 |  |
| CC1(C)S[C@@H]2[C@H](NC(=O)[C@H](N)c3ccc(O)cc3)C(=O)N2[C@H]1C(=O)O [Amoxicillin] |  | 2.8 | 7.2 |  |
| CN(C)CCc1c[nH]c2cccc(OP(=O)(O)O)c12 [Psilocybin] |  | 0.2 |  |  |
